# How the values were obtained:
# Type in all cases: functional, cell-based
# [1] = molecular target: T1, Multidrug resistance-associated protein 1 (Homo sapiens, UniProt P33527); assay: TP_TRANSPORTER: inhibition of Calcein efflux (Calcein: 0.05 micro;M, Amprenavir: 0.02 uM) in UMCC-1/VP cells
# [2] = molecular target: T1, Multidrug resistance-associated protein 1; assay: TP_TRANSPORTER: inhibition of Calcein efflux (Calcein: 0.05 micro;M, Zidovudine: 0.02 uM) in UMCC-1/VP cells
# [3] = molecular target: T1, Multidrug resistance-associated protein 1; assay: TP_TRANSPORTER: inhibition of Calcein efflux (Calcein: 0.05 micro;M, Indinavir: 0.114 uM) in UMCC-1/VP cells
# [4] = molecular target: T1, Multidrug resistance-associated protein 1; assay: TP_TRANSPORTER: inhibition of Calcein efflux (Calcein: 0.05 micro;M, Lamivudine: 0.55 uM) in UMCC-1/VP cells
# T1 sequence (P33527 whole entry): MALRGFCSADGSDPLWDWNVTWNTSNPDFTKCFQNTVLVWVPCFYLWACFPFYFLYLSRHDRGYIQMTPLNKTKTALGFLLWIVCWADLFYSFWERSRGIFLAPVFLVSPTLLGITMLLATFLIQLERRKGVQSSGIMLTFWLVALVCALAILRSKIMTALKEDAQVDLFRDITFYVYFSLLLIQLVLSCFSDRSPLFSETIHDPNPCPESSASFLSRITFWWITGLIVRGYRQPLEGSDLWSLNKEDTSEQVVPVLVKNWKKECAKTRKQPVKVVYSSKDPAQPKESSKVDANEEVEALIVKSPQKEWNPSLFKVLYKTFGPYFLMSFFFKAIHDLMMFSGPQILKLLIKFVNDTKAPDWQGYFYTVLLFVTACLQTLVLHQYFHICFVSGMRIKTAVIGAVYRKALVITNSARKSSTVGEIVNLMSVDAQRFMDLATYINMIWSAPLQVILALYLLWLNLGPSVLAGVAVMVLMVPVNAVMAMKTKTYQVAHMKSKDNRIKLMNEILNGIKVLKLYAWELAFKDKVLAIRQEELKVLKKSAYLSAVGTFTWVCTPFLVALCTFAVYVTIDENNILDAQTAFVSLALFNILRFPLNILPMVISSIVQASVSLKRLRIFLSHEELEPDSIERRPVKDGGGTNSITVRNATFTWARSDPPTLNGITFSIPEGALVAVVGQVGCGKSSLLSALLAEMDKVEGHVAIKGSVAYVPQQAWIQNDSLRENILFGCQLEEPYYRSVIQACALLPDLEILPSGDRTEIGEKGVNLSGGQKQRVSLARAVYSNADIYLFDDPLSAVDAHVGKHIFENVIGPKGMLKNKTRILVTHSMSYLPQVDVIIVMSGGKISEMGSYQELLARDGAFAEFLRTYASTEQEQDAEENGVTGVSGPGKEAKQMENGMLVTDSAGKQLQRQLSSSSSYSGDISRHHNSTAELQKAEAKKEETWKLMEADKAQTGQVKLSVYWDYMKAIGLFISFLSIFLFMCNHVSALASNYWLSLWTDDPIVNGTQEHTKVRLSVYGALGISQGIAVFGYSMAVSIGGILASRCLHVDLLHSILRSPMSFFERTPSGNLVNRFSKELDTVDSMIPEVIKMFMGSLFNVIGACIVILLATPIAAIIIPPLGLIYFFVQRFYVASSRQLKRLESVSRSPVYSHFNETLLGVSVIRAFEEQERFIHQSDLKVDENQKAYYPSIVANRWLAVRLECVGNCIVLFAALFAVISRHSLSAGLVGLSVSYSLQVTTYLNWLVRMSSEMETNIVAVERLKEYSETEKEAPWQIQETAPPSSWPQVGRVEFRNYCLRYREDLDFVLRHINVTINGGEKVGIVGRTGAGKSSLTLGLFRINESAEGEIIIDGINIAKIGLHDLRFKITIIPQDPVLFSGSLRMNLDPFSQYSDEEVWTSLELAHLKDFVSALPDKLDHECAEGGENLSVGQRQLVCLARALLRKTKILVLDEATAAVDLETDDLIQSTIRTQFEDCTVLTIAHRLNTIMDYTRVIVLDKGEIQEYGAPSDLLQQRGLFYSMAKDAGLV
smiles,measurement,setting,value
CC(C)CN(C[C@@H](O)[C@H](Cc1ccccc1)NC(=O)O[C@H]1CCOC1)S(=O)(=O)c1ccc(N)cc1,Activity,[1],is not an inhibitor [-]
Cc1cn([C@H]2C[C@H](N=[N+]=[N-])[C@@H](CO)O2)c(=O)[nH]c1=O [ZIDOVUDINE],Activity,[2],is not an inhibitor [-]
CC(C)(C)NC(=O)[C@@H]1CN(Cc2cccnc2)CCN1C[C@@H](O)C[C@@H](Cc1ccccc1)C(=O)N[C@H]1c2ccccc2C[C@H]1O.O,Activity,[3],is not an inhibitor [-]
Nc1ccn([C@@H]2CS[C@H](CO)O2)c(=O)n1 [LAMIVUDINE],Activity,[4],is not an inhibitor [-]
